In ChEMBL document CHEMBL5653631, “A Potent and Selective ULK1 Inhibitor Suppresses Autophagy and Sensitizes Cancer Cells to Nutrient Stress” (iScience, 2018):
Each block holds one molecule with its values, some of them ahead of it.

What was measured:
[1] = target: Cyclin-dependent kinase 1 (Homo sapiens) (UniProt P06493); test: Inhibition of human recombinant CDC2 at 500 nM in presence of ATP by radiometric assay relative to control
[2] = target: Epithelial discoidin domain-containing receptor 1 (Homo sapiens) (UniProt Q08345); test: Inhibition of human recombinant DDR1 at 500 nM in presence of ATP by radiometric assay relative to control
Epithelial discoidin domain-containing receptor 1 (Homo sapiens), sequence (Q08345 whole entry, the tested form may be a part): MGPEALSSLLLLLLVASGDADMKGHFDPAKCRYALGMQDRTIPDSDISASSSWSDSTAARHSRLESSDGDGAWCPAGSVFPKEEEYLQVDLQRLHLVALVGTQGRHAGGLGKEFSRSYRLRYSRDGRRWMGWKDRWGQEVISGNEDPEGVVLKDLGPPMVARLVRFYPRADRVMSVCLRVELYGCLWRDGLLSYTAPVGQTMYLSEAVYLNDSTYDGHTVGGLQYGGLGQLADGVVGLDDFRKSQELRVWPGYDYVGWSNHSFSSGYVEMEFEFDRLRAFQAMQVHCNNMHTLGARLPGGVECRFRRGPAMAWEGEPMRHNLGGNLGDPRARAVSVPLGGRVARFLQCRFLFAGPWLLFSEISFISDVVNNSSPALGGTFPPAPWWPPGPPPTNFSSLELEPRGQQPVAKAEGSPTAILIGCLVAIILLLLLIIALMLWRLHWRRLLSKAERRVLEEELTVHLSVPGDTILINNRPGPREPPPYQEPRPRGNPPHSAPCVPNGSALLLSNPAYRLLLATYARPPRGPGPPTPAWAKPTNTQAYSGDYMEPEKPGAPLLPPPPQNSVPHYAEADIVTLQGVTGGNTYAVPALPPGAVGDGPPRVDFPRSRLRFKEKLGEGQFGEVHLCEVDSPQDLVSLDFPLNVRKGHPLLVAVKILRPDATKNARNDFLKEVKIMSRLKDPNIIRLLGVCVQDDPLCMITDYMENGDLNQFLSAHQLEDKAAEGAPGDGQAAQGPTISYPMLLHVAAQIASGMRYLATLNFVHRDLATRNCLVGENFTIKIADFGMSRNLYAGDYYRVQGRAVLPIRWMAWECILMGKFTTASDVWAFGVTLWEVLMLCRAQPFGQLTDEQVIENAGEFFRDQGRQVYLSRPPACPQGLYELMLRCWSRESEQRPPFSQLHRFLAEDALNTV

[3] = target: T1, Aurora kinase C (Homo sapiens) (UniProt Q9UQB9); test: Inhibition of human recombinant AurC at 500 nM related to control ULK1
T1 sequence (whole entry): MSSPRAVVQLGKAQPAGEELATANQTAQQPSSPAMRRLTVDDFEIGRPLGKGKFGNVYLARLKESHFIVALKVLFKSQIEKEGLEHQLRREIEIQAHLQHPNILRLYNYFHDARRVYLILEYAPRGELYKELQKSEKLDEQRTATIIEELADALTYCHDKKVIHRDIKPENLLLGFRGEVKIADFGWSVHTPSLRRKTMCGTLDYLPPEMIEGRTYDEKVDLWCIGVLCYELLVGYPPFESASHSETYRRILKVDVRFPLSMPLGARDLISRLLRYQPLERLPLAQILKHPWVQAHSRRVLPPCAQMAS

[4] = target: T2, Serine/threonine-protein kinase 17B (Homo sapiens) (UniProt O94768); test: Inhibition of human recombinant DRAK2 at 500 nM related to control ULK1
T2 sequence (whole entry): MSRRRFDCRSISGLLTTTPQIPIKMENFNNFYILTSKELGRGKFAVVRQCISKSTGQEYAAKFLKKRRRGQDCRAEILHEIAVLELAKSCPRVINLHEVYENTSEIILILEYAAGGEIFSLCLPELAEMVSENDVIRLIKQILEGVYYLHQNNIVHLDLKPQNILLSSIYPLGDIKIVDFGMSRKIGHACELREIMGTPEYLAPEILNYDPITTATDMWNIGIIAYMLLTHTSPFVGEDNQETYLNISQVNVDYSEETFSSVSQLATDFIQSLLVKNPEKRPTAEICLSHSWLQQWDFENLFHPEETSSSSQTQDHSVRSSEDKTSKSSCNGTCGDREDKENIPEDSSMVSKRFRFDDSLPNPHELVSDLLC

[5] = target: Homeodomain-interacting protein kinase 2 (Homo sapiens) (UniProt Q9H2X6); test: Inhibition of human recombinant HIPK2 at 15 nM in presence of ATP by radiometric assay relative to control
Homeodomain-interacting protein kinase 2 (Homo sapiens), sequence (Q9H2X6 whole entry, looked up, the tested form may be a part): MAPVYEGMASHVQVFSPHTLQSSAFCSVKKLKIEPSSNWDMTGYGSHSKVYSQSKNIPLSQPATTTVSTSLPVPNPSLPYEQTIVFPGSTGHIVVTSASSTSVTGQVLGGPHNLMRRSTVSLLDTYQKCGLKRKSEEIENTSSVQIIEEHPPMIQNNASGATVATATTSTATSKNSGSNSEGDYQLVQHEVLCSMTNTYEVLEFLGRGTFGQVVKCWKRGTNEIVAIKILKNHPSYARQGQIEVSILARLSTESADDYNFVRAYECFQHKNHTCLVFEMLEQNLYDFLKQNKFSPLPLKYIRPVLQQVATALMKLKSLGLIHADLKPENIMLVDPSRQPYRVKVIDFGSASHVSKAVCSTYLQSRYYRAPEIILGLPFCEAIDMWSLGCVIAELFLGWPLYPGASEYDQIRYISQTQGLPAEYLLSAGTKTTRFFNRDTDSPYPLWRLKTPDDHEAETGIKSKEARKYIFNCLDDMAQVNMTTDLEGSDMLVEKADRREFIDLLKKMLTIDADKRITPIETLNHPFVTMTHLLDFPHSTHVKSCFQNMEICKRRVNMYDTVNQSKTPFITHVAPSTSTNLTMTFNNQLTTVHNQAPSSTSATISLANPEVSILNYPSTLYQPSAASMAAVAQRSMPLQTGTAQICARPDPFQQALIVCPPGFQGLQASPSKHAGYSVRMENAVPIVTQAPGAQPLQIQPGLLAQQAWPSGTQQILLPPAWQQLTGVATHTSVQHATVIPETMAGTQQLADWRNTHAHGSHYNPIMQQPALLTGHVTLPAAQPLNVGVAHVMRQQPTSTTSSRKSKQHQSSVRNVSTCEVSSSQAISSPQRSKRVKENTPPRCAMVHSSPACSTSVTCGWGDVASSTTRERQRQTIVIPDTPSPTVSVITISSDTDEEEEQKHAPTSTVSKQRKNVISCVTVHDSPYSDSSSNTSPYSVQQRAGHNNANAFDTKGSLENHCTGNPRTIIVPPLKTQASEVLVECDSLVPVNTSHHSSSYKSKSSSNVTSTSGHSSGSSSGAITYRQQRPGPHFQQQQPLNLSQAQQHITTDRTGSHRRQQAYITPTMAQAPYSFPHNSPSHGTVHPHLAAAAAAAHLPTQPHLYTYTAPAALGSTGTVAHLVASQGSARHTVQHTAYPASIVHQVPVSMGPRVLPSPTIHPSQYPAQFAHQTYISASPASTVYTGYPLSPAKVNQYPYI

[6] = target: LIM domain kinase 1 (Homo sapiens) (UniProt P53667); test: Inhibition of human recombinant LIMK1 at 15 nM in presence of ATP by radiometric assay relative to control
LIM domain kinase 1 (Homo sapiens), sequence (P53667 whole entry, looked up, the tested form may be a part): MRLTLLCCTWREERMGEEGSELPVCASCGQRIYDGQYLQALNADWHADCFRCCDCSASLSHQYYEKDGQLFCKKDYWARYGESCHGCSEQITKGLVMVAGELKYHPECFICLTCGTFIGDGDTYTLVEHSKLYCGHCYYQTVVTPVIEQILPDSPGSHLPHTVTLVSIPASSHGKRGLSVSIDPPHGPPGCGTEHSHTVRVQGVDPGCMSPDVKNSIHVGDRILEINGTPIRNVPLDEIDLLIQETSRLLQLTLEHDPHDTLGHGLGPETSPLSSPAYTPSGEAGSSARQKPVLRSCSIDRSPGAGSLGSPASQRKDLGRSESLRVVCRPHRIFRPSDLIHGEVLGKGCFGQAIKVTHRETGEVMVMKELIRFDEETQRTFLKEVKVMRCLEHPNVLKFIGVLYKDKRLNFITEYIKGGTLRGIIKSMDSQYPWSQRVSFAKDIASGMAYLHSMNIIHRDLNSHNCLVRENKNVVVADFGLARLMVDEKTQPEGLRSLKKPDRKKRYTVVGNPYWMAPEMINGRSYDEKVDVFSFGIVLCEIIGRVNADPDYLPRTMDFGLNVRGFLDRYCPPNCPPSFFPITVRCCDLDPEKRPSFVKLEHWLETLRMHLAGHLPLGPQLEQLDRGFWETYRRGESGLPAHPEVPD

[7] = target: T3, Protein kinase C epsilon type (Homo sapiens) (UniProt Q02156); test: Inhibition of human recombinant PKCe at 15 nM in presence of ATP by radiometric assay relative to control
T3 sequence (whole entry): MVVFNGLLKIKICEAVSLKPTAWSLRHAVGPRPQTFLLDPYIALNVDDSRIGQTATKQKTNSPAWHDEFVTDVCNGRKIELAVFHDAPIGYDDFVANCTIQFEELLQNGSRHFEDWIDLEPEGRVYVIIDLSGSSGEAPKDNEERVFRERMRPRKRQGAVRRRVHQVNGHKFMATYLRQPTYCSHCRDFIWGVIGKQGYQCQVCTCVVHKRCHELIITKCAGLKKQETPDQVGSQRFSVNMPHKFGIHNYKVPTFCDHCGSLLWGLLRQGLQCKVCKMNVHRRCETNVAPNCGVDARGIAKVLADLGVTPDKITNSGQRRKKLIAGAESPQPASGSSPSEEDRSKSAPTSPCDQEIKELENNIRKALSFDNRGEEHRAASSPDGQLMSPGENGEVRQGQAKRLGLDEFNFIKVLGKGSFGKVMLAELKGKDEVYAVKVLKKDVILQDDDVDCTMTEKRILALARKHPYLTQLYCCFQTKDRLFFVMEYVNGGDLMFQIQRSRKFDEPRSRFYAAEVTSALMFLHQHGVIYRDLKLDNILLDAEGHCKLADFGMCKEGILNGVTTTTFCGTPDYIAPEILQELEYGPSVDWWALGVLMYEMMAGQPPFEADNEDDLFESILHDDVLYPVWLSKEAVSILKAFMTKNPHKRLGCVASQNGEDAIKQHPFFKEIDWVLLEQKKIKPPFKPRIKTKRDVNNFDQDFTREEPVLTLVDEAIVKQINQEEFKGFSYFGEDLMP

[8] = target: Serine/threonine-protein kinase PAK 4 (Homo sapiens) (UniProt O96013); test: Inhibition of human recombinant PAK4 at 15 nM related to control ULK1
Serine/threonine-protein kinase PAK 4 (Homo sapiens), sequence (O96013 whole entry, looked up): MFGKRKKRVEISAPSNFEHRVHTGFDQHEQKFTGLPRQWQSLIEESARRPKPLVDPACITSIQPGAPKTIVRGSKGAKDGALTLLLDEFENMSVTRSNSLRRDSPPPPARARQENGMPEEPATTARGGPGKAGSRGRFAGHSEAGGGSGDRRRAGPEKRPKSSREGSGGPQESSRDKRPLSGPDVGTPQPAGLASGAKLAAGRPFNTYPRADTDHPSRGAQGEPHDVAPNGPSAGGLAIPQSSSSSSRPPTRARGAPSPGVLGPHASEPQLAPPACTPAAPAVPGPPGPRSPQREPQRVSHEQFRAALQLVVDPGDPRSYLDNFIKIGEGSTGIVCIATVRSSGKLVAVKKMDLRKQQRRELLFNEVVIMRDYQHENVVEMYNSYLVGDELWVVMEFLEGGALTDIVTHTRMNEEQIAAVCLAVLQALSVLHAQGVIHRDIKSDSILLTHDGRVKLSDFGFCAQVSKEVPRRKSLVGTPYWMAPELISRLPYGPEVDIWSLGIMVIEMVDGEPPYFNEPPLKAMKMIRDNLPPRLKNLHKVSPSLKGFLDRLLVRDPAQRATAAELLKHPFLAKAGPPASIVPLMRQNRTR

[9] = target: Dual specificity tyrosine-phosphorylation-regulated kinase 1A (Homo sapiens) (UniProt Q13627); test: Inhibition of human recombinant DYRK1A at 40 nM in presence of ATP by radiometric assay relative to control
[10] = target: T4, Dual specificity mitogen-activated protein kinase kinase 6 (Homo sapiens) (UniProt P52564); test: Inhibition of human recombinant MAP2K6 at 40 nM in presence of ATP by radiometric assay relative to control
T4 sequence (whole entry): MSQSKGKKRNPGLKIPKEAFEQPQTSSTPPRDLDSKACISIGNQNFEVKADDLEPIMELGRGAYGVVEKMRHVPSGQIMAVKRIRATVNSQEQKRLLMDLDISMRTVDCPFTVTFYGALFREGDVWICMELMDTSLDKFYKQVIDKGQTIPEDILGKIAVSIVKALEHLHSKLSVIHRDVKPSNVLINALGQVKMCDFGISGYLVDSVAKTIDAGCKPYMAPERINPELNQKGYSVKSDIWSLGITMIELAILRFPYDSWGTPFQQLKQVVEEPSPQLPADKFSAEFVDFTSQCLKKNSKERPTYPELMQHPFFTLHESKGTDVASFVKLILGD

[11] = target: Phosphorylase b kinase gamma catalytic chain, skeletal muscle/heart isoform (Homo sapiens) (UniProt Q16816); test: Inhibition of human recombinant PHKg1 at 40 nM related to control ULK1
Phosphorylase b kinase gamma catalytic chain, skeletal muscle/heart isoform (Homo sapiens), sequence (Q16816 whole entry, looked up, canonical isoform): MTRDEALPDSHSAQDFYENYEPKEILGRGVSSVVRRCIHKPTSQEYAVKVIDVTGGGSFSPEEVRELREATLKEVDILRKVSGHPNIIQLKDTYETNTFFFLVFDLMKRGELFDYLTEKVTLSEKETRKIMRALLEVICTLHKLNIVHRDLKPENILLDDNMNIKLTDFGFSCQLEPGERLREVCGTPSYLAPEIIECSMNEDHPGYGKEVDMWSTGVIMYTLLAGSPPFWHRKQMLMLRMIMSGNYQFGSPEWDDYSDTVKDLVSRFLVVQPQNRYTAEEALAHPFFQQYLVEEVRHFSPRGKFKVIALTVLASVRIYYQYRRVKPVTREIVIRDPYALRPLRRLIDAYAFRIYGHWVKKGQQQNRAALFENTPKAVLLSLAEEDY

[12] = target: Serine/threonine-protein kinase D2 (Homo sapiens) (UniProt Q9BZL6); test: Inhibition of human recombinant PKD2 at 40 nM in presence of ATP by radiometric assay relative to control
Serine/threonine-protein kinase D2 (Homo sapiens), sequence (Q9BZL6 whole entry, looked up): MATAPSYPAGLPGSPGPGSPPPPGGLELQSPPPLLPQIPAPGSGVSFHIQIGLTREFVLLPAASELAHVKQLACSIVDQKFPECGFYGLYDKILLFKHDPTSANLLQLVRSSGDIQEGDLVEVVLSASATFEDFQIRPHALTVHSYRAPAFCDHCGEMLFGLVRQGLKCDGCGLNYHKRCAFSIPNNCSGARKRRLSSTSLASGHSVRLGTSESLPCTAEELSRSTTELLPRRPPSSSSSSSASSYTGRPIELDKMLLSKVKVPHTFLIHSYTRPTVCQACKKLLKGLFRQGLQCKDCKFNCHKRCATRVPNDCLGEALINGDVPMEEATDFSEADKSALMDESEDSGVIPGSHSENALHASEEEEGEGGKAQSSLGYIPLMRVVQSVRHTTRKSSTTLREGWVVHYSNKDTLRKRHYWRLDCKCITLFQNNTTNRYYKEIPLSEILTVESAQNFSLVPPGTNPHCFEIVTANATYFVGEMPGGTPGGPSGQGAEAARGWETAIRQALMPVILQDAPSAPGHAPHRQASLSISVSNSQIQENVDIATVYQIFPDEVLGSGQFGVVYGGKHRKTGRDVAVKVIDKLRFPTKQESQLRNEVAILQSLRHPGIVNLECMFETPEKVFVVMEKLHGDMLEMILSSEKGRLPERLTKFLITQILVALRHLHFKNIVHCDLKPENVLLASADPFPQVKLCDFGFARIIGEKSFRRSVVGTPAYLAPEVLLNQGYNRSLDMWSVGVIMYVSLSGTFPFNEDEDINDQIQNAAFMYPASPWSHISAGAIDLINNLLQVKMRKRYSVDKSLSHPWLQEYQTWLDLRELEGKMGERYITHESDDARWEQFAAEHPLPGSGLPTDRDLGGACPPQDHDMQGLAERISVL

Cyclin-dependent kinase 1 (Homo sapiens), sequence (P06493 whole entry, looked up, the tested form may be a part): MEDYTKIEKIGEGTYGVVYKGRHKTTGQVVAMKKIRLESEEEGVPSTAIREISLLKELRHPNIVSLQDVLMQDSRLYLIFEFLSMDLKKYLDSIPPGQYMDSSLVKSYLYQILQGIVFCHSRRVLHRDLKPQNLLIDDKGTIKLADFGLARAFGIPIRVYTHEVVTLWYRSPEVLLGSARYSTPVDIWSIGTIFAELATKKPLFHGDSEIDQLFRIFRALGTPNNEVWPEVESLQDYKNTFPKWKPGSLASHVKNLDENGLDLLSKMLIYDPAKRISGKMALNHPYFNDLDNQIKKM

inhibition [1]: 30%
inhibition [2]: 47%
fold change (FC) [3]: 0.99
fold change (FC) [4]: 0.08
Structure (SMILES): CNC(=O)c1ccccc1Oc1nc(Nc2cc(OC)c(OC)c(OC)c2)ncc1Br

inhibition [5]: 3%
inhibition [6]: 56%
inhibition [7]: 0%
fold change (FC) [8]: 0
Structure (SMILES): CC(C)[C@H](NC(=O)c1cc(-c2cnn3cc(-c4ccc(OCCN5CCCCC5)cc4)cnc23)cs1)C(F)(F)F

inhibition [9]: 43%
inhibition [10]: 0%
fold change (FC) [11]: 0.16
inhibition [12]: 6%
Structure (SMILES): O=C(N[C@@H](C1CC1)C(F)(F)F)c1cc(-c2cnn3cc(-c4ccc(F)cc4)cnc23)cs1
